Reference: patent US8912220B2 (priority 2009, dated 2014)
pEC50: −log10 of the molar value.

Molecular target: human 5-HT2C(VSV) (Homo sapiens, UniProt P28335, I156V/I160V/N158S)
Assay: cell-based

Chain of human 5-HT2C(VSV) (P28335 33-458 I156V/N158S/I160V limits assumed): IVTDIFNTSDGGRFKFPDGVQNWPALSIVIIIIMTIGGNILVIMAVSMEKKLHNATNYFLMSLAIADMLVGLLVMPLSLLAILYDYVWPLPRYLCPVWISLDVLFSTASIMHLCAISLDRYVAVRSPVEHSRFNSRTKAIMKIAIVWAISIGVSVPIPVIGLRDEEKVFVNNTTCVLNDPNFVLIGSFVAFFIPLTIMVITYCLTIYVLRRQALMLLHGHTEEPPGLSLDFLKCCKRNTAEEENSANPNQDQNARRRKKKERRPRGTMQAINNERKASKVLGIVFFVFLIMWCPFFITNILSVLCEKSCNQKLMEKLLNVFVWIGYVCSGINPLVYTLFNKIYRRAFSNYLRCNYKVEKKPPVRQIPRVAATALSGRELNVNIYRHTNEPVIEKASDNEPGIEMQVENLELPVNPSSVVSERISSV

Structure (SMILES) | pEC50
CCOc1c(F)ccc2c1c(CCNCc1cccc(C(F)(F)F)c1)cn2C [30-22, 2-(4-ethoxy-5-fluoro-1-methyl-1H-indol-3-yl)-N-(3-(trifluoromethyl)benzyl)ethanamine] | 6.30 to 9.00
CCOc1c(F)ccc2c1c(CCN1CCOCC1)cn2C [30-23, 4-(2-(4-ethoxy-5-fluoro-1-methyl-1H-indol-3-yl)ethyl)morpholine] | 5.00 to 6.30
CCOc1c(F)ccc2c1c(CCN1CCCC1CO)cn2C (stereo not shown) [30-24, (1-(2-(4-ethoxy-5-fluoro-1-methyl-1H-indol-3-yl)ethyl)pyrrolidin-2-yl)methanol] | 5.00 to 6.30
CCOc1c(F)ccc2c1c(CCNCCc1ccccc1)cn2C [30-25, 2-(4-ethoxy-5-fluoro-1-methyl-1H-indol-3-yl)-N-phenethylethanamine] | 6.30 to 9.00
CCOc1c(F)ccc2c1c(CCNCCc1ccc3c(c1)OCO3)cn2C [30-26, 2-(benzo[d][1,3]dioxol-5-yl)-N-(2-(4-ethoxy-5-fluoro-1-methyl-1H-indol-3-yl)ethyl)ethanamine] | 6.30 to 9.00
CCOc1c(F)ccc2c1c(CCNCCc1ccccn1)cn2C [30-27, 2-(4-ethoxy-5-fluoro-1-methyl-1H-indol-3-yl)-N-(2-(pyridin-2-yl)ethyl)ethanamine] | 6.30 to 9.00
CCOc1c(F)ccc2c1c(CCNCc1cccs1)cn2C [30-28, 2-(4-ethoxy-5-fluoro-1-methyl-1H-indol-3-yl)-N-(thiophen-2-ylmethyl)ethanamine] | 6.30 to 9.00
CCOc1c(F)ccc2c1c(CCN1CCCC1)cn2C [30-29, 4-ethoxy-5-fluoro-1-methyl-3-(2-(pyrrolidin-1-yl)ethyl)-1H-indole] | 6.30 to 9.00
CCn1cc(CCN2Cc3ccccc3C2)c2c(OCc3ccccc3)cc(F)cc21 [31-3, 4-(benzyloxy)-1-ethyl-6-fluoro-3-(2-(isoindolin-2-yl)ethyl)-1H-indole] | 5.00 to 6.30
CCn1cc(CCN2Cc3ccccc3C2)c2c(O)cc(F)cc21 [31-4, 1-ethyl-6-fluoro-3-(2-(isoindolin-2-yl)ethyl)-1H-indol-4-ol] | 5.00 to 6.30
CCn1cc(CCN(C)Cc2ccccc2)c2c(OCc3ccccc3)cc(F)cc21 [31-6, N-benzyl-2-(4-(benzyloxy)-1-ethyl-6-fluoro-1H-indol-3-yl)-N-methylethanamine] | 6.30 to 9.00
CCn1cc(CCN2C[C@@H]3C[C@H]2CN3Cc2ccccc2)c2c(O)cc(F)cc21 [31-7, 3-(2-((1S,4S)-5-benzyl-2,5-diazabicyclo[2.2.1]heptan-2-yl)ethyl)-1-ethyl-6-fluoro-1H-indol-4-ol] | 5.00 to 6.30
CCn1cc(CCNCc2cccc(C(F)(F)F)c2)c2c(OCc3ccccc3)cc(F)cc21 [31-8, 2-(4-(benzyloxy)-1-ethyl-6-fluoro-1H-indol-3-yl)-N-(3-(trifluoromethyl)benzyl)ethanamine] | 5.00 to 6.30
CCn1cc(CCNCc2cccc(Cl)c2)c2c(OCc3ccccc3)cc(F)cc21 [31-9, 2-(4-(benzyloxy)-1-ethyl-6-fluoro-1H-indol-3-yl)-N-(3-chlorobenzyl)ethanamine] | 5.00 to 6.30
CCn1cc(CCNC(c2ccccc2)c2ccccc2)c2c(O)cc(F)cc21 [31-10, 3-(2-(benzhydrylamino)ethyl)-1-ethyl-6-fluoro-1H-indol-4-ol] | 6.30 to 9.00
CCn1cc(CCNCc2cccc(Cl)c2)c2c(O)cc(F)cc21 [31-11, 3-(2-(3-chlorobenzylamino)ethyl)-1-ethyl-6-fluoro-1H-indol-4-ol] | 6.30 to 9.00
CCn1cc(CCNCc2cccc(C(F)(F)F)c2)c2c(O)cc(F)cc21 [31-12, 1-ethyl-6-fluoro-3-(2-(3-(trifluoromethyl)benzylamino)ethyl)-1H-indol-4-ol] | 6.30 to 9.00
CCn1cc(CCNCCc2cccc(C(F)(F)F)c2)c2c(OCc3ccccc3)cc(F)cc21 [31-13, 2-(4-(benzyloxy)-1-ethyl-6-fluoro-1H-indol-3-yl)-N-(3-(trifluoromethyl)phenethyl)ethanamine] | 6.30 to 9.00
CCn1cc(CCN(C)C)c2c(Oc3ccccc3)cc(F)cc21 [32-2, 2-(1-ethyl-6-fluoro-4-phenoxy-1H-indol-3-yl)-N,N-dimethylethanamine] | 5.00 to 6.30
